{"source": "patent US20130261165A1", "about": "“PREVENTION AND TREATMENT OF DISEASES CHARACTERIZED BY MESENCEPHALIC DOPAMINERGIC NEURON CELL DEATH” (THE MCLEAN HOSPITAL CORPORATION, priority 2010, published 2013)", "key": {"[1]": {"conditions": "cited from earlier work"}, "En-1 [2]": {"system": "En-1", "assay": "En-1 mRNA expression by qPCR in primary ventral midbrain cultures", "conditions": "for fold induction at 10 µM: Mus musculus, 24 h, read-out: Fold Increase in En-1 Expression", "procedure": "(§5) One library consisting of FDA-approved and non-FDA approved drugs (NINDS) was screened for drugs with an ability to up-regulate En-1 and/or FoxA2 expression in neuronal cells. Candidate compounds were screened in a gene expression assay using a qPCR detection methodology in a primary ventral midbrain preparation of E12 mice.\n(§6) To determine the extent of upregulation in the compounds of interest after initial screening, primary cultures of ventral midbrain cells of E12 CD1 mice were prepared. The embryonic ventral midbrains were removed and stored in HBSS on ice. The dissection time was less than 30-60 minutes. The ventral midbrain tissue was dissociated by removal of the HBSS and addition of 1 ml of 0.05% trypsin-EDTA for 10 minutes at 37° C. During incubation, the tissue and the trypsin-EDTA solution was mixed by occasional careful swirling of the tube. The reaction was stopped, the trypsin aspirated, and 1 ml of 50% HBSS/FBS was added. […] Candidate compound treatment was stopped by cell lysis. The mRNA was isolated and cDNA was synthesized using the Qiagen Turbocapture™ kit (Qiagen Inc., Valencia, Calif.) using Superscript III® reverse transcriptase (Life Technologies, Carlsbad, Calif.) according to manufacturer's protocol. En-1 and FOXA2 mRNA in the cultured cells was quantified using qPCR. […] Assay fluorescence was determined using a Step-One Plus fluorescence plate reader in 96-well plates at a standard reaction time for ramp speed.\n(§7) The fold change in mRNA expression level was calculated according to the following formulas:\nFold change=2^−ΔΔCt wherein [1]\n(§8) ΔΔCt=(Cttarget gene−Ct18S)treated−(Cttarget gene−Ct18S)untreated.\n(§9) In formula 2, Cttarget gene refers to the Ct value determined for either En-1 or FOXA2 (as appropriate) and Ct18S refers to the Ct value determined for the mRNA encoding the 18S ribosomal subunit, each measured by qPCR."}, "FoxA2 [3]": {"system": "FoxA2", "assay": "FoxA2 mRNA expression by qPCR in primary ventral midbrain cultures", "conditions": "for fold induction at 10 µM: Mus musculus, 24 h, read-out: Fold Increase in FoxA2 Expression", "procedure": "as §5, §6, §7\nFold change=2^−ΔΔCt wherein [1]\nas §8, §9"}, "En-1 [4]": {"system": "En-1", "conditions": "adult male C57 mice, 20 mg/kg/day subcutaneous for 12 days, n=8, qPCR vs GAPDH and β-actin, listed as duloxetine HCl, hydrochloride", "protocol": "(§1) Adult mice were treated with duloxetine HCl (20 mg/kg/day) by subcutaneous injection for 12 days (n=8). […] Data were obtained by qPCR analysis using GAPDH and β-actin as housekeeping genes followed by ΔΔCt calculation.\n(§2) Duloxetine HCl (20 mg/kg/day) or saline vehicle was administrated subcutaneously into adult male C57 mice over a period of 12 days. […] Substantia nigra pars compacta was fresh dissected and snap frozen in RNA preserving solution in liquid nitrogen. […] Changes in mRNA expression due to duloxetine HCl treatment were determined by quantitative PCR using a Step One Plus Instrument and TaqMan® reagents (Applied Biosystems). […] Beta actin and GAPD were used as housekeeping genes and fold regulation was calculated using the delta Ct method.\n(§3) ΔΔCt=(Cttarget gene−Cthousekeeping gene)treated−(Cttarget gene−Cthousekeeping gene)untreated\n(§4) Untreated refers to combined cDNA from the saline treated animals. cDNA from each saline treated animal was also run against the pooled control cDNA."}, "FoxA2 [5]": {"system": "FoxA2", "conditions": "adult male C57 mice, 20 mg/kg/day subcutaneous for 12 days, n=8, qPCR vs GAPDH and β-actin, listed as duloxetine HCl, hydrochloride", "protocol": "as §1, §2, §3, §4"}, "[6]": {"system": "FoxA2 positive dopaminergic neurons", "conditions": "10 μM pre-treatment 24 hours prior to 6-OHDA (1-50 μM); control = cells not exposed to toxin", "procedure": "The embryonic ventral midbrains were removed and stored in HBSS on ice. The dissection time was less than 30-60 minutes. The ventral midbrain tissue was dissociated by removal of the HBSS and the addition of 1 ml of 0.05% trypsin-EDTA for 10 minutes at 37° C. During incubation, the tissue and the trypsin-EDTA solution was mixed by occasional careful swirling of the tube. The reaction was stopped, the trypsin aspirated, and 1 ml of 50% HBSS/FBS was added. […] The tissue was triturated using an autoclaved glass pasteur pipette with narrowed opening and a stripettor. The cell suspension was centrifuged at 1000 rpm for 5 min, the supernatant aspirated, and the cells resuspended in E12 media. Twenty-five thousand cells per well were plated in 96 well PLO/laminin coated black-wall imaging plates (Costar) and incubated for 6 days without candidate compound treatment. […] 6-hydroxydopamine hydrobromide (6-OHDA) (Sigma) was reconstituted in ascorbic acid and PBS and added at concentrations of 1-50 μM to the cultures. […] Cultures were stained for tyrosine hydroxylase, FoxA2 and Hoechst and visualized using alexa fluor secondary antibodies. Cultures were analyzed by high content analysis (using an InCell 2000 instrument). The percentage of FoxA2 positive dopaminergic neurons were documented."}, "[7]": {"conditions": "primary ventral midbrain cells of E12 CD1 mice, 10 μM for 24 hours, qPCR vs 18S"}}, "note": "Several values for one entry are separate records, joined by “and”; a condition that tells them apart may be missing. Equal values may be shown once. Where a name gives a salt, the structure may show the parent alone.", "data": [{"smiles": "CNCC[C@H](Oc1cccc2ccccc12)c1cccs1", "note": "[Duloxetine]", "values": [{"measurement": "dosage hydrolyzed to 1-naphthol", "setting": "[1]; pH 1.0, within one hour", "result": 50, "unit": "%"}, {"measurement": "dosage degraded to 1-naphthol", "setting": "[1]; pH 2.0, in one hour", "result": 10, "unit": "%"}, {"measurement": "time for 10% degradation", "setting": "[1]; pH 4.0", "result": "up to 63 hours"}]}, {"smiles": "C[C@H]1C[C@@H]2[C@H]([C@@H](O)C[C@@]3(C)[C@H]2CC[C@]3(O)C(=O)CO)[C@@]2(C)C=CC(=O)C=C12", "note": "[Methylprednisolone]", "values": [{"measurement": "fold induction at 10 µM", "setting": "En-1 [2]", "result": 1.38}, {"measurement": "fold induction at 10 µM", "setting": "FoxA2 [3]", "result": 1.41}]}, {"smiles": "O=C(O)c1ccccc1Nc1cccc(C(F)(F)F)c1", "note": "[Flufenamic acid]", "values": [{"measurement": "fold induction at 10 µM", "setting": "En-1 [2]", "result": 2.6}, {"measurement": "fold induction at 10 µM", "setting": "FoxA2 [3]", "result": 3.4}]}, {"smiles": "CCC1(c2ccccc2)C(=O)NCNC1=O", "note": "[Primidone]", "values": [{"measurement": "fold induction at 10 µM", "setting": "En-1 [2]", "result": 0.86}, {"measurement": "fold induction at 10 µM", "setting": "FoxA2 [3]", "result": 1.43}]}, {"smiles": "Cc1ccccc1C(OCCN(C)C)c1ccccc1", "note": "(stereo not drawn) [Orphenadrine citrate]", "values": [{"measurement": "fold induction at 10 µM", "setting": "En-1 [2]", "result": 1.69}, {"measurement": "fold induction at 10 µM", "setting": "FoxA2 [3]", "result": 1.82}]}, {"smiles": "C#CCN(C)Cc1ccccc1", "note": "[Pargyline hydrochloride]", "values": [{"measurement": "fold induction at 10 µM", "setting": "En-1 [2]", "result": 1.73}, {"measurement": "fold induction at 10 µM", "setting": "FoxA2 [3]", "result": 1.27}]}, {"smiles": "CC(N)C12CC3CC(CC(C3)C1)C2", "note": "(stereo not drawn) [Rimantadine hydrochloride]", "values": [{"measurement": "fold induction at 10 µM", "setting": "En-1 [2]", "result": 1.3}, {"measurement": "fold induction at 10 µM", "setting": "FoxA2 [3]", "result": 2.7}]}, {"smiles": "CC(=O)c1ccc(S(=O)(=O)NC(=O)NC2CCCCC2)cc1", "note": "[Acetohexamide]", "values": [{"measurement": "fold induction at 10 µM", "setting": "En-1 [2]", "result": 2.3}, {"measurement": "fold induction at 10 µM", "setting": "FoxA2 [3]", "result": 3}]}, {"smiles": "COc1ccccc1OCC(O)COC(N)=O", "note": "(stereo not drawn) [Methocarbamol]", "values": [{"measurement": "fold induction at 10 µM", "setting": "En-1 [2]", "result": 1.83}, {"measurement": "fold induction at 10 µM", "setting": "FoxA2 [3]", "result": 2.3}]}, {"smiles": "c1ccc2c(c1)CCCC2C1=NCCN1", "note": "(stereo not drawn) [Tetrahydrozoline hydrochloride]", "values": [{"measurement": "fold induction at 10 µM", "setting": "En-1 [2]", "result": 1.06}, {"measurement": "fold induction at 10 µM", "setting": "FoxA2 [3]", "result": 2.06}]}, {"smiles": "CC(=O)O[C@]1(C(C)=O)CC[C@H]2[C@@H]3C=C(C)C4=CC(=O)CC[C@]4(C)[C@H]3CC[C@@]21C", "note": "[Megestrol acetate]", "values": [{"measurement": "fold induction at 10 µM", "setting": "En-1 [2]", "result": 2.14}, {"measurement": "fold induction at 10 µM", "setting": "FoxA2 [3]", "result": 1.89}]}, {"smiles": "O=C1CC[C@@]2(O)[C@H]3Cc4ccc(O)c5c4[C@@]2(CCN3CC2CC2)[C@H]1O5", "note": "[Naltrexone hydrochloride]", "values": [{"measurement": "fold induction at 10 µM", "setting": "En-1 [2]", "result": 2.09}, {"measurement": "fold induction at 10 µM", "setting": "FoxA2 [3]", "result": 3.39}]}, {"smiles": "CC(=O)S[C@@H]1CC2=CC(=O)CC[C@]2(C)[C@H]2CC[C@@]3(C)[C@@H](CC[C@@]34CCC(=O)O4)[C@H]12", "note": "[Spironolactone]", "values": [{"measurement": "fold induction at 10 µM", "setting": "En-1 [2]", "result": 1.34}, {"measurement": "fold induction at 10 µM", "setting": "FoxA2 [3]", "result": 1.74}]}, {"smiles": "CCN1CCCC1CNC(=O)c1cc(S(N)(=O)=O)ccc1OC", "note": "(stereo not drawn) [Sulpiride]", "values": [{"measurement": "fold induction at 10 µM", "setting": "En-1 [2]", "result": 1.4}, {"measurement": "fold induction at 10 µM", "setting": "FoxA2 [3]", "result": 1.7}]}, {"smiles": "CC(C)NCC(O)COc1cccc2[nH]ccc12", "note": "(stereo not drawn) [Pindolol]", "values": [{"measurement": "fold induction at 10 µM", "setting": "En-1 [2]", "result": 9.8}, {"measurement": "fold induction at 10 µM", "setting": "FoxA2 [3]", "result": 44.1}]}, {"smiles": "Cc1cc(=O)[nH]c(=S)[nH]1", "note": "[Methylthiouracil]", "values": [{"measurement": "fold induction at 10 µM", "setting": "FoxA2 [3]", "result": 2.34}]}, {"smiles": "CCCCNC(=O)NS(=O)(=O)c1ccc(C)cc1", "note": "[Tolbutamide]", "values": [{"measurement": "fold induction at 10 µM", "setting": "En-1 [2]", "result": 21.6}, {"measurement": "fold induction at 10 µM", "setting": "FoxA2 [3]", "result": 35}]}, {"smiles": "c1ccc(CC2=NCCN2)cc1", "note": "[Tolazoline hydrochloride]", "values": [{"measurement": "fold induction at 10 µM", "setting": "En-1 [2]", "result": 2.51}, {"measurement": "fold induction at 10 µM", "setting": "FoxA2 [3]", "result": 2.67}]}, {"smiles": "NC(=O)c1cc([N+](=O)[O-])cc([N+](=O)[O-])c1", "note": "[Nitromide]", "values": [{"measurement": "Fold Increase in En-1 Expression", "setting": "En-1 [2]; [7]", "result": 0.28, "unit": "Fold"}, {"measurement": "Fold Increase in FoxA2 Expression", "setting": "FoxA2 [3]; [7]", "result": 1.55, "unit": "Fold"}]}, {"smiles": "CCOC(=O)[C@H](CCc1ccccc1)N[C@@H](C)C(=O)N1[C@H](C(=O)O)C[C@H]2CCCC[C@@H]21", "note": "[Trandolapril]", "values": [{"measurement": "fold induction at 10 µM", "setting": "En-1 [2]", "result": 17.9}]}, {"smiles": "CO[C@@]1(NC(=O)C(C(=O)O)c2ccc(O)cc2)C(=O)N2C(C(=O)O)=C(CSc3nnnn3C)CO[C@@H]21", "note": "(stereo partly drawn) [Moxalactam disodium]", "values": [{"measurement": "fold induction at 10 µM", "setting": "En-1 [2]", "result": 4.34}, {"measurement": "fold induction at 10 µM", "setting": "FoxA2 [3]", "result": 7.31}]}, {"smiles": "CC(CCc1ccccc1)NC(C)C(O)c1ccc(O)cc1", "note": "(stereo not drawn) [Nylidrin hydrochloride]", "values": [{"measurement": "fold induction at 10 µM", "setting": "FoxA2 [3]", "result": 1.7}]}, {"smiles": "COc1ccc2c(c1OC)C(=O)O[C@@H]2[C@H]1c2c(cc3c(c2OC)OCO3)CCN1C", "note": "[Noscapine hydrochloride]", "values": [{"measurement": "fold induction at 10 µM", "setting": "En-1 [2]", "result": 1.83}, {"measurement": "fold induction at 10 µM", "setting": "FoxA2 [3]", "result": 1.45}]}, {"smiles": "CC1(C)O[C@@H]2C[C@H]3[C@@H]4C[C@H](F)C5=CC(=O)CC[C@]5(C)[C@H]4[C@@H](O)C[C@]3(C)[C@]2(C(=O)CO)O1", "note": "[Flurandrenolide]", "values": [{"measurement": "fold induction at 10 µM", "setting": "En-1 [2]", "result": 1.5}, {"measurement": "fold induction at 10 µM", "setting": "FoxA2 [3]", "result": 1.9}]}, {"smiles": "CCCc1cc(=O)[nH]c(=S)[nH]1", "note": "[Propylthiouracil]", "values": [{"measurement": "fold induction at 10 µM", "setting": "En-1 [2]", "result": 1.3}, {"measurement": "fold induction at 10 µM", "setting": "FoxA2 [3]", "result": 1.68}]}, {"smiles": "CNCC[C@H](Oc1cccc2ccccc12)c1cccs1", "note": "[Duloxetine hydrochloride]", "values": [{"measurement": "En-1 mRNA expression in substantia nigra, fold increase", "setting": "En-1 [4]", "result": "1.98 fold and 1.98±0.098 fold"}, {"measurement": "FoxA2 mRNA expression in substantia nigra, fold increase", "setting": "FoxA2 [5]", "result": "2.19 fold and 2.19±0.23 fold"}, {"measurement": "DA neuron survival as a percentage of control", "setting": "[6]", "result": 107, "unit": "%"}, {"measurement": "fold induction at 10 µM", "setting": "En-1 [2]", "result": 19}, {"measurement": "fold induction at 10 µM", "setting": "FoxA2 [3]", "result": 49.5}]}, {"smiles": "c1ccc2c(CC3=NCCN3)cccc2c1", "note": "[Naphazoline hydrochloride]", "values": [{"measurement": "fold induction at 10 µM", "setting": "En-1 [2]", "result": 8.95}, {"measurement": "fold induction at 10 µM", "setting": "FoxA2 [3]", "result": 1.99}]}, {"smiles": "NNCCc1ccccc1", "note": "[Phenelzine sulfate]", "values": [{"measurement": "fold induction at 10 µM", "setting": "FoxA2 [3]", "result": 2.5}]}, {"smiles": "Cn1cc[nH]c1=S", "note": "[Methimazole]", "values": [{"measurement": "fold induction at 10 µM", "setting": "En-1 [2]", "result": 0.2}, {"measurement": "fold induction at 10 µM", "setting": "FoxA2 [3]", "result": 1.97}]}, {"smiles": "C[N+]1(C)[C@@H]2C[C@@H](OC(=O)[C@H](CO)c3ccccc3)C[C@H]1[C@@H]1O[C@@H]12", "note": "[Methscopolamine bromide]", "values": [{"measurement": "fold induction at 10 µM", "setting": "En-1 [2]", "result": 1.9}, {"measurement": "fold induction at 10 µM", "setting": "FoxA2 [3]", "result": 1.9}]}]}
